From ChEMBL document CHEMBL3525899, “Identification of the cytochrome P450 and other enzymes involved in the in vitro oxidative metabolism of a novel antidepressant, Lu AA21004” (Drug Metab Dispos, 2012)

Molecular target: T1, Cytochrome P450 2C8 (Homo sapiens, UniProt P10632)
T1 sequence (P10632 whole entry): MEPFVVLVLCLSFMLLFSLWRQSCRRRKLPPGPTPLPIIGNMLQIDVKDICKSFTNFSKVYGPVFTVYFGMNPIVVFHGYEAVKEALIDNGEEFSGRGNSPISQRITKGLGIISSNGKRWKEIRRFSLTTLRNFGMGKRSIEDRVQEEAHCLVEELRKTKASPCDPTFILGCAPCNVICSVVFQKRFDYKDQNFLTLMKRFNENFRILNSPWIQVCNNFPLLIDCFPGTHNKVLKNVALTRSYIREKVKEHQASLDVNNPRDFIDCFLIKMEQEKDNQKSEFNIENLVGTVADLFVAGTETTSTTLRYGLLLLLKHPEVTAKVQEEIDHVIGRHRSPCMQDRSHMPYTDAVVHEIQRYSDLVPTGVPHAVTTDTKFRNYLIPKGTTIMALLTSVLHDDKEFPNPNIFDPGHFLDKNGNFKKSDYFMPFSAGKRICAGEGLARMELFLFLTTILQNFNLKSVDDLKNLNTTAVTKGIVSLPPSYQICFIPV
Assay: Activity of human recombinant CYP2C8 expressed in microsomes isolated from human AHH-1 cells assessed as enzyme-mediated 1-(2-(2,4-dimethylphenylsulfinyl)phenyl)piperazine formation at 8 to 50 uM after 120 mins by HPLC/MS-MS analysis in presence of NADPH regenerating system with NADP+
Type: ADME, cell-free
Settings: 2 h

Drug metabolism: metabolite_detected
Structure (SMILES): Br.Cc1ccc(Sc2ccccc2N2CCNCC2)c(C)c1 [VORTIOXETINE HYDROBROMIDE]
